Test results: publication PMC7460240 (Biomedicines, 2020)
In brackets after ≈: the same amount, converted by molar mass. Structures can show the parent of a compound that is named as a salt. Blank lines part the entries; values can stand above or below the compound they belong to.

Key:
hPtch1 = molecular target: T1, hPtch1 (Homo sapiens, UniProt Q13635); test: Doxorubicin efflux measurement in hPtch1-expressing yeast (fluorescence microscopy); assay type: cell-based; details: 10 µM P136 in efflux buffer, 10 min, 2-deoxy-D-glucose
T1 construct: expressed in transfected cells; host or cells: Saccharomyces cerevisiae strain K699
T1 sequence (Q13635 1-1447): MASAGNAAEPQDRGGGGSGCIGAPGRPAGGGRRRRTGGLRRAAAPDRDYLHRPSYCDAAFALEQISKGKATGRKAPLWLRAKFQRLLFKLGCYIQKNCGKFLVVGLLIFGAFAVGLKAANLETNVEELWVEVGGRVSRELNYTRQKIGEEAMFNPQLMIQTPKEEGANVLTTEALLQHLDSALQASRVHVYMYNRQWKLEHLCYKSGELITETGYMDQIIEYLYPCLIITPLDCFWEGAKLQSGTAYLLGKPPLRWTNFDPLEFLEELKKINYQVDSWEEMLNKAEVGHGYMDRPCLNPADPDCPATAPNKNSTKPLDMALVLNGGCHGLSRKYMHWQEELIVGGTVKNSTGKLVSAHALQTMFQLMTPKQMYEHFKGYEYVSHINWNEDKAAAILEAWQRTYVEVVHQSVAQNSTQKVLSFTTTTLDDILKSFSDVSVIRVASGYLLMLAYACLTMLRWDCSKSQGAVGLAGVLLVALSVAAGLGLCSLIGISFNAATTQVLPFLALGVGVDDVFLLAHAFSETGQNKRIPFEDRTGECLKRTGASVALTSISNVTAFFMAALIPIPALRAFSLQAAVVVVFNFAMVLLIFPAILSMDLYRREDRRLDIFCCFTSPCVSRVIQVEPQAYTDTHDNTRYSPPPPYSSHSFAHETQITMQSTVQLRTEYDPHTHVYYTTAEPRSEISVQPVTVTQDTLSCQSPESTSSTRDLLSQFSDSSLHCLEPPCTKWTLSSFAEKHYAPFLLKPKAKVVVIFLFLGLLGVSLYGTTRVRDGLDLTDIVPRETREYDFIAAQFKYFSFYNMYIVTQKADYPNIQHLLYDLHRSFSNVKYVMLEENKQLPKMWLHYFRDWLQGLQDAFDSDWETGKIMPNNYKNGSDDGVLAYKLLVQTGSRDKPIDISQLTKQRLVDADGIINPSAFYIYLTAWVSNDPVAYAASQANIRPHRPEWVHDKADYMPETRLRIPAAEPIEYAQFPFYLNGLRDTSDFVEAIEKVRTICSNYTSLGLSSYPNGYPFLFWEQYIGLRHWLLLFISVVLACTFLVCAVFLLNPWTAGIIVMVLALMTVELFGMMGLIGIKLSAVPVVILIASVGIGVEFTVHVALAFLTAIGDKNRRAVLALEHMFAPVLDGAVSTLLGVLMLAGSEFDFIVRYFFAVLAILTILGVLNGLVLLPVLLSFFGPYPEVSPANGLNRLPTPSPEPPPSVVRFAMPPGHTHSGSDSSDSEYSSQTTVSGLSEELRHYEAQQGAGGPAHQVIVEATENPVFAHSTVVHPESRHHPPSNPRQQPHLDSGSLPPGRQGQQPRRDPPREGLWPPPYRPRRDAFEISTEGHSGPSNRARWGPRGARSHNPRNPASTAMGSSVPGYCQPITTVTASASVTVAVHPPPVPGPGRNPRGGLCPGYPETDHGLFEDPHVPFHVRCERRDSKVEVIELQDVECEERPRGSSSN
Procedure: Efflux measurements were carried out as described in [19]. On yeast: hPtch1-expressing yeasts or control yeasts were grown to an OD600 of 5, centrifuged, washed with cold water and resuspended in HEPES–NaOH buffer (pH 7.0) containing 5 mM 2-deoxy-D-glucose and 10 µM dxr for 2 h at 4 °C. […] Yeasts were centrifuged, resuspended in 4% PFA and deposited on a coverslip with SlowFade Gold antifade reagent containing DAPI (Invitrogen).
(§1) Images were acquired with a Zeiss Axioplan 2 fluorescence microscope coupled to a digital charge-coupled device camera using a 63X objective for yeast or a 40X /1.3 Plan NeoFluar objective for cells, and filters for Alexa 594 or FITC for dxr or Bo-chol analysis, respectively. Dxr or Bo-chol fluorescence was quantified using the ImageJ software. About 100 yeast/cells (from three wells) were scored per condition.
Figure 1 P136 inhibits doxorubicin efflux activity of hPtch1 when expressed in yeast. […] The growth of yeast was measured by absorbance at 600 nm. (B) P136 inhibits the efflux of doxorubicin of hPtch1-expressing yeast. hPtch1-expressing yeast and control yeast were incubated with dxr for 2 h and fixed for dxr loading control or resuspended in buffer containing DMSO or 10 μM P136 for 10 min, fixed and deposited on a coverslip for analysis by fluorescence microscopy. […]

[1] = Cytotoxicity assay (neutral red, 48 h) on H295R cells; assay type: cell-based, human; details: human, H295R cells at 80% confluence
Procedure: (§2) Cytotoxicity assays on H295R cells were carried out as previously described. Briefly, H295R cells were grown in 96-well plates to achieve 70% to 80% confluence. […] An amount of 100 µL of medium containing increasing concentrations of dxr was then added. […] After 48 h, cells were incubated 3 h at 37 °C with neutral red (NR) solution following the manufacturer’s protocol. Absorbance was measured in a microplate reader (Multiskan Go Microplate Spectrophotometer from Thermo Fisher Scientific, Illkirch, France).

H295R cells [2] = test: as above; assay type: cell-based, human
Procedure: as §2

H295R cells [3] = test: Synergy analysis of drug combination (Chou-Talalay) on H295R cells; assay type: cell-based, human; details: 48 h, dxr with 1 µM astemizole
Procedure: Synergy analysis was performed using the Chou-Talalay method for drug combination as described in [21, 22]. […] Normalized isobolograms and Chou-Talalay’s plots (Fa-CI plot were Fa is the fraction affected and CI is the combination index) were created using the Compusyn Software (Version 1.0 downloaded from www.combosyn.com). These allow quantitative determination of drug interactions, where CI < 1 (below the diagonal), =1 (diagonal) and >1 (above the diagonal) indicate synergism, additive effect and antagonism, respectively. Dose-reduction index (DRI) is reported.

caspase 3/7 activity = test: Apoptosis measurement (Caspase-Glo 3/7) in H295R cells; assay type: cell-based, human; details: 48 h, 0.5 µM astemizole, no dxr
Procedure: Quantification of caspase 3/7 activity was performed using the luminescent assay Caspase-Glo 3/7 (Promega, Charbonnières-les-Bains, France) and a luminometer (Glomax 96 Microplate Luminometer from Promega, Charbonnières-les-Bains, France) following the manufacturer’s protocol.

H295R cells [4] = test: Clone formation of H295R cells (14 days, crystal violet); assay type: cell-based, human; details: combination of dxr and astemizole
Procedure: After 14 days, clones were stained with crystal violet and pictures were taken. Cells were then solubilized and absorbance was measured in a microplate reader at 550 nm (Multiskan Go Microplate Spectrophotometer, Thermo Scientific, Illkirch, France).

H295R cells [5] = test: Spheroid formation in 3D culture of H295R cells; assay type: cell-based, human; details: 14 days
Procedure: H295R cells were cultured in DMEM/F-12, 2% NuSerum, 1% ITS Plus and penicillin/streptomycin supplemented with 20 µg/µL EGF and 20 µg/µL FGF. […] After 14 days, images of each well were taken using a cell imaging multi-mode reader (Cytation 5 from Bio Tek, Colmar, France). Then, 100 µL of the medium was removed from each well and 100 µL of Cell Titer Glow 3D reagent (Promega) was added. Spheroids were disrupted according to the protocol from the Cell Titer Glow 3D Viability Assay (Promega) and viability was measured in a microplate reader at 550 nm (Multiskan Go Microplate Spectrophotometer, Thermo Scientific).

[6] = Distribution coefficient octanol/PBS pH 7.4; assay type: physicochemical; details: read-out: LogD7.4
[7] = Solubility in aqueous buffer (PBS, pH 7.4); assay type: physicochemical
[8] = Metabolic stability in rat liver microsomes; assay type: in vitro ADME; details: NADPH, read-out: RLM T1/2
Procedure: (§3) Profiling and PK studies were performed by GalenAuxi Co (Oxford, UK) as previously described. […] Plasma samples (50 μL) were collected via the facial vein at 3, 10, 30, 60, 120, 240, 360 and 1440 min post-dose for the IV group, and at 10, 30, 60, 120, 240, 360, 480 and 1440 min post-dose for the PO group in K2EDTA-coated tubes, mixed gently and centrifuged at 2500 g for 15 min at 4 °C within 1 h after collection. For control animals, blood was collected by cardiac puncture. Plasma samples were prepared in acetonitrile for LC-MS/MS analysis. Peak areas were recorded and the concentrations of the test compound in the unknown plasma samples were determined using the respective calibration curve.
(§4) We determined its lipophilicity described by the distribution constant LogD, its solubility, which is an important parameter since water is the solvent of choice for the liquid pharmaceutical formulation, its metabolic stability measured in the presence of rat and human microsomes and NADPH, and its ability to bind to proteins.

[9] = Metabolic stability in human liver microsomes; assay type: in vitro ADME; details: NADPH, read-out: HLM T1/2
Procedure: as §3, §4

[10] = Human plasma protein binding; assay type: in vitro ADME; details: read-out: Ppb
MeWo cells [11] = test: Doxorubicin efflux in MeWo melanoma cells; assay type: cell-based, human; details: 30 µM astemizole, 30 min
HaCaT keratinocytes = test: Cell viability of HaCaT keratinocytes (48 h); assay type: cell-based, human; details: 10 µM astemizole
H295R cells [12] = system: H295R cells
Ptch1 [13] = molecular target: T2, Ptch1 (Homo sapiens, UniProt Q13635); test: Doxorubicin efflux measurement in H295R cells; assay type: cell-based; parameters: endogenous in cells; host or cells: H295R; details: H295R cells loaded with 10 µM dxr 2 h, then 30 min efflux buffer with 10 µM astemizole
T2 sequence (Q13635 1-1447): T1 sequence (Q13635 1-1447)
Procedure: (§5) After 2 h, some coverslips were immediately fixed with PFA and mounted in SlowFade Gold antifade reagent containing DAPI (Invitrogen) for loading control.
as §1
(§6) After 2 h, 3 coverslips were fixed for dxr or Bo-chol loading control. […] Images were acquired using fluorescence microscopy and a 40x objective. Fluorescence was quantified using the Image J software for 100 cells per condition.

Ptch1 [14] = molecular target: T2, Ptch1; test: BODIPY-cholesterol efflux measurement in H295R cells; assay type: cell-based; parameters: endogenous in cells; host or cells: H295R; details: H295R cells loaded with BODIPY-cholesterol 2 h, then 30 min efflux buffer with 10 µM astemizole
Procedure: as §5, §1, §6

[15] = Cell viability of MeWo melanoma cells (48 h); details: human, MeWo melanoma cells
Procedure: (§7) Cell viability was measured after 48 hours
(§8) doxorubicin (dxr) 2 μM. The graphs reported are representative of more than 3 independent
(§9) Cell viability was measured after 48 hours treatment
(§10) the mean ± SEM values of 3 independent experiments. Significance, calculated using ANOVA
(§11) multiple comparison test and Bonferroni correction, was attained at p < 0.05 (*) (***: p < 0.0005).

MeWo cells [16] = test: Cell viability of MeWo melanoma cells (48 h); details: MeWo cells, 48 h, serial dilutions of astemizole with 2 µM dxr
Procedure: as §7, §8, §9, §10, §11

Ptch1 [17] = molecular target: T2, Ptch1; test: Screening on the resistance to doxorubicin of yeast expressing human Ptch1 (growth, OD600); assay type: cell-based; parameters: expressed in transfected cells; host or cells: Saccharomyces cerevisiae strain K699; details: 10 µM compound; for effect on resistance/growth of hPtch1-expressing yeast in the presence of dxr: 10 µM dxr, 18 °C, about 72 h
Procedure: The screening of molecules on yeast was carried out as described in [18]. Briefly, S. cerevisiae expressing human Ptch1 were grown at 30 °C up to an OD600 between 1 and 2in minimal medium containing 2% of glucose and amino acid cocktail without leucine, and then diluted in rich medium containing 2% glucose in 96-well plates. An amount of 10 µM of molecules to be tested was added in 8 wells (10 molecules can be tested on one plate) and 10 µM of dxr was added to half of the wells. Plates were incubated at 18 °C on a shaker at 1250 rpm (microtiter plate shaker SSL5 Stuart) and absorbance at 600 nm was recorded for about 72 h.
Figure 1 P136 inhibits doxorubicin efflux activity of hPtch1 when expressed in yeast. (A) P136 inhibits the resistance of hPtch1-expressing yeast to doxorubicin. hPtch1-expressing yeast were grown in the presence of 10 µM of P136, P298 or P375, and in the presence or absence of 10 µM doxorubicin (dxr). DMSO was used as control. The growth of yeast was measured by absorbance at 600 nm. (B) P136 inhibits the efflux of doxorubicin of hPtch1-expressing yeast. hPtch1-expressing yeast and control yeast were incubated with dxr for 2 h and fixed for dxr loading control or resuspended in buffer containing DMSO or 10 μM P136 for 10 min, fixed and deposited on a coverslip for analysis by fluorescence microscopy. The dxr fluorescence of 100 yeast for each condition from 3 independent experiments was quantified using the ImageJ software. […] Significance is attained at p < 0.05 (*) (***: p < 0.0005, ****: p < 0.00005, ns: no significant difference).

H295R cells [18] = test: cells; details: Homo sapiens, NCI-H295R, 168 h, read-out: Dxr-IC50 (proliferation), astemizole 0 µM

logD [6]: 3.5
solubility [7]: 22.1 µM (≈ 10.1 µg/mL)
half-life [8]: 31 min
half-life [9]: > 60 min
fraction unbound [10]: 0.01
dxr kept inside the cells (Ptch1 [13]): about 73%
Bo-chol kept inside the cells (Ptch1 [14]): about 95%
SMILES: COc1ccc(CCN2CCC(Nc3nc4ccccc4n3Cc3ccc(F)cc3)CC2)cc1 [astemizole, Astemizole]
effect on amount of dxr in hPtch1-expressing yeast (dxr efflux) (hPtch1): increases the amount of dxr in hPtch1-expressing yeast significantly more than in control yeast
IC50 at 48 h [1]: ~7 µM
increase of the efficacy of dxr combined with etoposide and mitotane (EDM) by astemizole (H295R cells [2]; H295R cells, 1 µM astemizole, dxr + 10 µM etoposide + 10 µM mitotane): about eight times
increase of the cytotoxicity of dxr by astemizole (H295R cells [2]; H295R cells, 1 µM astemizole, dxr alone): about 10 times
toxicity of astemizole by itself to ACC cells (H295R cells [2]; H295R cells, 1 µM astemizole, no dxr): not toxic to ACC cells by itself
cooperativity indices (CI), dxr and astemizole (H295R cells [3]): below 1
effect of astemizole by itself on caspase 3/7 activity (caspase 3/7 activity): does not affect caspase 3/7 activity by itself
increase of the anti-clonogenic activity of dxr (H295R cells [4]): increased four times
spheroid size with combination dxr + astemizole (H295R cells [5]): significantly smaller
effect on dxr efflux from melanoma cells (MeWo cells [11]): inhibits dxr efflux from melanoma cells
effect on keratinocyte viability (HaCaT keratinocytes): very slight effect on keratinocyte viability
effect of astemizole by itself on cell viability (H295R cells [12]; 7 days, 0.5 µM astemizole, no dxr): does not affect cell viability by itself
effect of astemizole alone on proliferation (H295R cells [12]; serial dilution of astemizole for 7 days): inhibited their proliferation
IC50 at 48 h [15]: ~7 µM
effect on dxr cytotoxicity in melanoma cells (MeWo cells [16]): increases dxr cytotoxicity
effect on resistance/growth of hPtch1-expressing yeast in the presence of dxr (Ptch1 [17]): able to inhibit the growth of hPtch1-expressing yeast in the presence of dxr
effect on growth of hPtch1-expressing yeast in the absence of dxr (Ptch1 [17]; no dxr): without effects on the growth of hPtch1-expressing yeast in the absence of dxr

SMILES: CSc1ccc2c(c1)C(N1CCN(C)CC1)Cc1ccccc1S2 (stereo not drawn) [P375, methiothepin maleate]
effect on resistance/growth of hPtch1-expressing yeast in the presence of dxr (Ptch1 [17]): significantly inhibited the resistance of hPtch1-expressing yeast to dxr

IC50 (H295R cells [18]): 0.1 ± 0.02 µM
SMILES: COc1cccc2c1C(=O)c1c(O)c3c(c(O)c1C2=O)C[C@@](O)(C(=O)CO)C[C@@H]3O[C@H]1C[C@H](N)[C@H](O)[C@H](C)O1 [Dxr, Doxorubicin hydrochloride]
IC50 (H295R cells [2]; Homo sapiens, NCI-H295R, read-out: Dxr-IC50 Without Astemizole, H295R cells, neutral red, mean ± SEM of 3 experiments): 17.3 ± 3.6 µM
